Here are results for 26 compounds from patent US8524740B2, “Synthesis and anticancer activity of aryl and heteroaryl-quinolin derivatives” (Tairx, Inc., priority 2010, dated 2013).

One data set concerns HL-60. Briefly: MTT assay, HL-60 cells. Type of data set: cell-based. To be noted: Homo sapiens. As for the experimental part:
(§1) MTT (3-(4,5-Dimethylthiazol-2-yl)-2,5-diphenyltetrazolium bromide) assays.^21,22 HL-60, HCT-116, Hep 3B, H460, Detroit 551 and HT29/FuR cells were treated with tested compounds for the indicated periods. After treatment, cells were washed once with PBS and incubated with MTT (Sigma, St. Louis, Mo., USA) for 2 h. The formazan precipitate was dissolved in 150 μL of DMSO, and the absorbance was measured with an ELISA reader at 570 nm.
(§2) HL-60, Hep 3B, H460, MES-SA, MES-SAID x5 and Detroit 551 cells were treated with vehicle or test compounds for 48 h. The cell growth rate was determined by MTT (3-(4,5-dimethyl-thiazol-2-yl)-2,5-diphenyltetrazoliun bromide) reduction assay.
(§3) MTT (3-(4,5-Dimethylthiazol-2-yl)-2,5-diphenyltetrazolium bromide) assays. HL-60, HCT-116, A549, Hep 3B, KB, Kb-VIN and DU145 cells were treated with tested compounds for the indicated periods. After treatment, cells were washed once with PBS and incubated with MTT (Sigma, St. Louis, Mo., USA) for 2 h. The formazan precipitate was dissolved in 150 μL of DMSO, and the absorbance was measured with an ELISA reader at 570 nm.
(§4) MTT (3-(4,5-Dimethylthiazol-2-yl)-2,5-diphenyltetrazolium bromide) assays. HL-60, Hep 3B, H460, A498, Colo205 and Detroit 551 cells were treated with tested compounds for the indicated periods. After treatment, cells were washed once with PBS and incubated with MTT (Sigma, St. Louis, Mo., USA) for 2 h. The formazan precipitate was dissolved in 150 μL of DMSO, and the absorbance was measured with an ELISA reader at 570 nm.

For another data set, the system named is HCT116. Description: MTT assay, HCT-116 cells. It counts as cell-based. To be noted: Homo sapiens, Table 1, 48 h. As for the experimental part: as §1, §3
A further data set has as its system Hep3B. Description: MTT assay, Hep 3B cells. It counts as cell-based. To be noted: Homo sapiens. As for the experimental part:
as §1, §2, §3, §4

Another data set has as its system H460. Description: MTT assay, H460 cells. Type of data set: cell-based. To be noted: Homo sapiens, NCI-H460. The protocol: as §1, §2, §4
On the technique in general: Formazan colour is commonly taken as a measure of viable cells.

The subject of a further data set is Detroit 551. Briefly: MTT assay, Detroit 551 normal human cells. To be noted: for IC50: Detroit 551. It counts as cell-based. As for the experimental part:
as §1, §2, §4

In a further data set the test system is HT29/5FuR. Briefly: MTT assay, HT29/5FuR cells. It counts as cell-based. To be noted: Homo sapiens, HT-29, Table 1, 48 h. As for the experimental part:
as §1

The test system of data set [1] is HL-60, HCT-116, Hep3B, H-460. Description: Cytotoxicity screen (MTT) against human cancer cell lines, results in words. It counts as cell-based. To be noted: comparison within sub-series or with CHM-2133. As for the experimental part: as §1, §2
Where [2] appears, read: Table 1, 48 h, MTT, normal human cell.
Setting [3] is: Homo sapiens, Table 2, B-1 series, 48 hrs.
The mark [4] stands for this setting: Homo sapiens, Table 3, B-2 series, 48 hrs.
[5] abbreviates: Homo sapiens, Table 4, B-3 series, 48 hrs.

The term IC50 denotes the concentration that inhibits the measured activity by half. In the case of `COc1ccc2c(c1OC)C(=O)CC(c1ccccc1F)=N2` [Compound 16, 2-(2-Fluorophenyl)-5,6-dimethoxyquinolin-4-one], the IC50 in the data set on HL-60 (Table 1, 48 h, MTT) is 3.7 µM; with HCT116, greater than 20 µM; in the data set with Hep3B (Table 1, 48 h, MTT) it was greater than 20 µM; in the data set on H460 (Table 1, 48 h, MTT), greater than 20 µM; in the data set on Detroit 551 (setting [2]), greater than 20 µM; in the data set on HT29/5FuR, 2.03 µM.

For orientation: melting point means the temperature, or range, at which the solid turns liquid. On to `COc1cc2c(cc1OCc1ccccc1)N=C(c1ccccc1F)CC2=O` [Compound 22, 7-Benzyloxy-2-(2-fluorophenyl)-6-methoxyquinolin-4-one], for which the melting point was 132 to 134 °C.

Compound `COc1cc2c(cc1OCc1ccccc1)N=C(c1cccc(F)c1)CC2=O` [Compound 23, 7-Benzyloxy-2-(3-fluorophenyl)-6-methoxyquinolin-4-one] showed a melting point of 154 to 155 °C.

Regarding `COc1cc2c(cc1OCc1ccccc1)N=C(c1ccc(F)cc1)CC2=O` [Compound 24, 7-Benzyloxy-2-(4-fluorophenyl)-6-methoxyquinolin-4-one], the melting point lay within 248 to 249 °C.

In the case of `COc1ccc2c(c1O)C(=O)CC(c1ccccc1F)=N2` [Compound 37, 2-(2-Fluorophenyl)-5-hydroxy-6-methoxyquinolin-4-one], the IC50 in the data set with HL-60 (Table 1, 48 h, MTT) came to 0.067 µM; with HCT116, 0.05 µM; in the data set on Hep3B (Table 1, 48 h, MTT), 0.05 µM; with H460 (Table 1, 48 h, MTT) it was 0.11 µM; in the data set on Detroit 551 (setting [2]) it was 10 µM; with HT29/5FuR, 0.2 µM. The “toxicity toward Detroit 551 normal human cell (in words)” value in the data set on Detroit 551 (Table 1 compounds) is recorded as “lower toxicity”. In addition, the “cytotoxicity (in words)” value in data set [1] is “greater cytotoxicity”.

Regarding `O=C1CC(c2ccc(F)cc2)=Nc2ccc(O)c(O)c21` [Compound 42, 2-(4-Fluorophenyl)-5,6-dihydroxyquinolin-4-one], the IC50 is 38.6 µM with HL-60 (Table 1, 48 h, MTT); greater than 100 µM with HCT116; 100 µM in the data set with Hep3B (Table 1, 48 h, MTT); 100 µM with H460 (Table 1, 48 h, MTT); greater than 100 µM in the data set on Detroit 551 (setting [2]). Further, the “cytotoxicity (in words)” value in data set [1] was “weaker”.

The compound `O=C1CC(c2ccccc2OCc2ccccc2)=Nc2ccc(N3CCCC3)cc21` [Compound 114, 2-(2-Benzyloxyphenyl)-6-pyrrolidinoquinolin-4-one] yielded a melting point of 293 to 295 °C.

On to `CN(C)c1ccc2c(c1)C(=O)CC(c1ccccc1OCc1ccccc1)=N2` [Compound 115, 2-(2-Benzyloxyphenyl)-6-dimethylaminoquinolin-4-one], for which the melting point fell in the range of 210 to 212 °C.

For the compound `O=C1CC(c2cccc(OCc3ccccc3)c2)=Nc2ccc(N3CCOCC3)cc21` [Compound 116, 2-(3-Benzyloxyphenyl)-6-morpholinoquinolin-4-one], the melting point lay in the range of 283 to 285 °C.

Take `O=C1CC(c2cccc(OCc3ccccc3)c2)=Nc2ccc(N3CCCC3)cc21` [Compound 117, 2-(3-Benzyloxyphenyl)-6-pyrrolidinoquinolin-4-one]: the melting point lay within 320 to 322 °C.

In the case of `CN(C)c1ccc2c(c1)C(=O)CC(c1cccc(OCc3ccccc3)c1)=N2` [Compound 118, 2-(3-Benzyloxyphenyl)-6-dimethylaminoquinolin-4-one], the melting point lay within 307 to 308 °C.

For the compound `O=C1CC(c2ccc(OCc3ccccc3)cc2)=Nc2ccc(N3CCOCC3)cc21` [Compound 119, 2-(4-Benzyloxyphenyl)-6-morpholinoquinolin-4-one], the melting point lay in the range of 320 to 323 °C.

Compound `O=C1CC(c2ccc(OCc3ccccc3)cc2)=Nc2ccc(N3CCCC3)cc21` [Compound 120, 2-(4-Benzyloxyphenyl)-6-pyrrolidinoquinolin-4-one] yielded a melting point of 330 to 332 °C.

Compound `CN(C)c1ccc2c(c1)C(=O)CC(c1ccc(OCc3ccccc3)cc1)=N2` [Compound 121, 2-(4-Benzyloxyphenyl)-6-dimethylaminoquinolin-4-one] returned a melting point of 283 to 285 °C.

`COc1cc(C2=Nc3ccc(N4CCCC4)cc3C(=O)C2)ccc1OCc1ccccc1` [Compound 123, 2-(4-(Benzyloxy)-3-methoxyphenyl)-6-pyrrolidinoquinolin-4-one] had a melting point of 304 to 306 °C.

The compound `COc1ccc(C2=Nc3ccc(N4CCOCC4)cc3C(=O)C2)cc1` [Compound 132, 2-(4-Methoxyphenyl)-6-morpholinoquinolin-4-one] came in with a melting point of 302 to 304 °C. In the data set on HL-60 (Table 2, B-1 series, 48 hrs), this compound had an IC50 greater than 2.5 µM. Besides, the concentration for half-maximal inhibition (IC50) in the data set on Hep3B (Table 2, B-1 series, 48 hrs) was greater than 2.5 µM. The same compound showed an IC50 in the data set with H460 (Table 2, B-1 series, 48 hrs) greater than 2.5 µM. Further, the concentration for half-maximal inhibition (IC50) with Detroit 551 (setting [3]) is greater than 2.5 µM.

On to `COc1ccc(C2=Nc3ccc(N4CCCC4)cc3C(=O)C2)cc1` [Compound 133, 2-(4-Methoxyphenyl)-6-pyrrolidinoquinolin-4-one], for which the melting point is 312 to 313 °C. Further, in the data set with HL-60 (Table 3, B-2 series, 48 hrs), the IC50 is greater than 1 µM. In the data set with Hep3B (Table 3, B-2 series, 48 hrs), this compound registered an IC50 greater than 1 µM. In addition, the IC50 with H460 (Table 3, B-2 series, 48 hrs) is greater than 1 µM. The IC50 with Detroit 551 (setting [4]) was greater than 1 µM.

As for `CN(C)c1ccc2c(c1)C(=O)CC(c1ccccc1O)=N2` [Compound 136, 2-(2-Hydroxyphenyl)-6-dimethylaminoquinolin-4-one], the melting point lay in the range of 296 to 298 °C. Further, the IC50 with HL-60 (Table 4, B-3 series, 48 hrs) amounted to 3.02 µM. This compound came in with an IC50 with Hep3B (Table 4, B-3 series, 48 hrs) of 7.1 µM. In the data set with H460 (Table 4, B-3 series, 48 hrs), this compound yielded an IC50 of 5.4 µM. In the data set on Detroit 551 (setting [5]), this compound displayed an IC50 of 100 µM.

`O=C1CC(c2ccc(O)cc2)=Nc2ccc(N3CCOCC3)cc21` [Compound 140, 2-(4-Hydroxyphenyl)-6-morpholinoquinolin-4-one] had a melting point of 340 to 342 °C. The compound also displayed an IC50 in the data set on HL-60 (Table 2, B-1 series, 48 hrs) of 1.64 µM. This compound yielded an IC50 in the data set on Hep3B (Table 2, B-1 series, 48 hrs) greater than 10 µM. Further, in the data set on H460 (Table 2, B-1 series, 48 hrs), the IC50 was greater than 10 µM.

On to `O=C1CC(c2ccc(O)cc2)=Nc2ccc(N3CCCC3)cc21` [Compound 141, 2-(4-Hydroxyphenyl)-6-pyrrolidinoquinolin-4-one], for which the melting point fell in the range of 304 to 306 °C. Besides, the IC50 in the data set on HL-60 (Table 3, B-2 series, 48 hrs) is 0.04 µM. In addition, in the data set on Hep3B (Table 3, B-2 series, 48 hrs), the IC50 stood at 1.1 µM. Moreover, in the data set with H460 (Table 3, B-2 series, 48 hrs), it took 1.56 µM to reach half-maximal inhibition (IC50). The compound further displayed an IC50 with Detroit 551 (setting [4]) greater than 25 µM.

Compound `CN(C)c1ccc2c(c1)C(=O)CC(c1ccc(O)cc1)=N2` [Compound 142, 2-(4-Hydroxyphenyl)-6-dimethylaminoquinolin-4-one] registered a melting point of 321 to 323 °C. Moreover, half-maximal inhibition with HL-60 (Table 4, B-3 series, 48 hrs) (IC50) was put at 0.64 µM. In the data set with Hep3B (Table 4, B-3 series, 48 hrs), this compound returned an IC50 of 9 µM. Also, the IC50 with H460 (Table 4, B-3 series, 48 hrs) came to 0.56 µM. Also, the IC50 with Detroit 551 (setting [5]) worked out at 75 µM.

In turn, `COc1cc(C2=Nc3ccc(N4CCOCC4)cc3C(=O)C2)ccc1O` [Compound 143, 2-(4-Hydroxy-3-methoxyphenyl)-6-morpholinoquinolin-4-one] came in with a melting point of 297 to 299 °C. This compound displayed a concentration for half-maximal inhibition (IC50) in the data set with HL-60 (Table 2, B-1 series, 48 hrs) of 3.9 µM. Half-maximal inhibition in the data set with Hep3B (Table 2, B-1 series, 48 hrs) (IC50) required 50 µM. This compound also returned a half-maximal inhibitory concentration (IC50) with H460 (Table 2, B-1 series, 48 hrs) of 50 µM. The compound further came in with an IC50 with Detroit 551 (setting [3]) of 50 µM.

As to `COc1ccc(O)cc1C1=Nc2ccc(N3CCOCC3)cc2C(=O)C1` [Compound 143a, 2-(5-hydroxy-2-methoxyphenyl)-6-morpholinoquinolin-4-one], the half-inhibitory concentration (IC50) with HL-60 (Table 2, B-1 series, 48 hrs) was 93.8 µM; with Hep3B (Table 2, B-1 series, 48 hrs), greater than 100 µM; in the data set with H460 (Table 2, B-1 series, 48 hrs) it was 84.8 µM; in the data set on Detroit 551 (setting [3]) it was greater than 100 µM.

For `COc1ccc(O)cc1C1=Nc2ccc(N3CCCC3)cc2C(=O)C1` [Compound 143b, 2-(5-hydroxy-2-methoxyphenyl)-6-pyrrolidinoquinolin-4-one], the IC50 is 56.2 µM in the data set with HL-60 (Table 2, B-1 series, 48 hrs); 59.3 µM in the data set on Hep3B (Table 2, B-1 series, 48 hrs); greater than 100 µM in the data set on H460 (Table 2, B-1 series, 48 hrs); greater than 100 µM with Detroit 551 (setting [3]).

With `COc1cc(C2=Nc3ccc(N4CCCC4)cc3C(=O)C2)ccc1O` [Compound 144, 2-(4-Hydroxy-3-methoxyphenyl)-6-pyrrolidinoquinolin-4-one], the melting point was 310 to 312 °C. This compound also showed an IC50 in the data set with HL-60 (Table 3, B-2 series, 48 hrs) of 0.038 µM. In the data set with Hep3B (Table 3, B-2 series, 48 hrs), this compound displayed an IC50 of 0.38 µM. In addition, the half-maximal inhibitory concentration (IC50) in the data set on H460 (Table 3, B-2 series, 48 hrs) was 0.56 µM. The compound also displayed an IC50 with Detroit 551 (setting [4]) greater than 2.5 µM.

In turn, `COc1cc(OCc2ccccc2)cc(C2=Nc3cc4c(cc3C(=O)C2)OCO4)c1` [Compound 165, 2-(3-Benzyloxy-5-methoxyphenyl)-6,7-methylenedioxyquinolin-4-one] gave a melting point of 235 to 238 °C.
